Measurements: publication PMC9089363, “Nonpolymeric Citramide-Based Kinetic Hydrate Inhibitors: Good Performance with Just Six Alkylamide Groups” (ACS Omega, 2022)
Like-named read-outs stand apart in the source and are kept apart here.

Assays:
[1] = Cloud point (TCl) determination; type: physicochemical; details: 2500 ppm aqueous solution, heated ca. 5 °C/min up to 95 °C
Procedure: A 2500 ppm aqueous solution of each citramide derivative was heated slowly (ca. 5 °C/min), and the first sign of clouding of the solution at a certain temperature was denoted as the cloud point. Any solution that was already opaque at room temperature was first kept in a cooling room at 0–5 °C overnight before heating. Each measurement was repeated at least three times to check the reproducibility of the cloud point.

[2] = Slow constant cooling (SCC) KHI performance test in high-pressure steel rocking cells; details: SNG 76 bar
Procedure: 2.5 Kinetic Hydrate Inhibitor (KHI) Performance Tests in High-Pressure Rocking Cells
A rig with five high-pressure steel rocking cells was used for carrying out the KHI performance ranking of the new molecules. Each cell has a volume of 40 mL and a steel ball for agitation. The rig was supplied by PSL Systemtechnik GmbH, Germany, but the cells were constructed by Swafas, Norway (Figure 6). As in most of our KHI studies, we used a synthetic natural gas (SNG) mixture in order to compare results with a host of previous KHI studies. The SNG gives an sII hydrate as the thermodynamically stable phase (Table 1). Also, for comparative purposes we used our standard slow constant cooling (SCC) test method.[27] The pressure was approximately 76 bar at the start of each SCC experiment. At this pressure, an average equilibrium temperature (Teq) of 20.2 °C ± 0.05 °C was obtained from five repeat tests by laboratory slow dissociation experiments in the same rocking cells.[20] This agrees very well with a Teq value of 20.5 °C calculated using Calsep’s PVTSim software.
The SCC test procedure was carried out as follows: • 1. First, 20.0 mL of aqueous test solution was added to each steel cell, i.e., half the cell volume. • 2. Air was removed from the cells by alternate vacuum and filling with 1–5 bar SNG gas. • 3. The cells were filled with a 76 bar SNG mixture at room temperature, 20.5 °C. • 4. The cells were cooled from 20.5 to 2 °C at a rate of 1 °C/h while rocking. • 5. Temperature and pressure data for each cell were collected from the sensors and recorded throughout the whole cooling procedure.
Figure 8 illustrates how this is done for one cell. The small pressure drop at the very start of the graph is due to some SNG mixture dissolving in the aqueous phase. After this, the pressure drop is linear until hydrate formation is first detected at a To of 8.4 °C, where the pressure line deviates. Nucleation may have occurred somewhat earlier but is not detectable. Ta is the first temperature at which we observe the maximum rate of gas hydrate formation for the experiment.
At 8.1 °C (Ta), the first fastest pressure drop rate occurs. In this case, the rate of hydrate growth is fast shortly after To. […] The degrees of scattering in To values (≤20%) and Ta values (≤15%) are due to the stochastic nature of gas hydrate formation and are as expected from previous studies.[28] The scattering still allows for a rough ranking of the performance of the KHI samples as long as sufficient tests are carried out for a statistically significant difference using a t-test. Depending on the variation in average To between samples, 5–10 tests suffices in most cases to get a significant difference at the 95% confidence level (p < 0.05).[29]
At least 5 (and up to 10) standard constant cooling tests were employed to get each average To and average Ta value, where To denotes the temperature at which the first macroscopic detectable gas hydrate is formed and Ta denotes the rapid hydrate formation temperature in a solution. The KHI performance of each citramide derivative was compared mostly based on the To values as complete avoidance of gas hydrate formation is the preferred goal for field operations. Thus, a lower To value of a solution corresponds to a better KHI performance. […] However, caution in using this interpretation must be taken, since a low To value will mean a high driving force, which can cause more rapid macroscopic hydrate formation than a higher To value.

[3] = Solubility in water (observation); type: physicochemical
[4] = 2500 ppm aqueous solution, cooling 20.5 to 2 °C at 1 °C/h, average of 5-10 tests
[5] = 2500 ppm aqueous solution, cooling 20.5 to 2 °C at 1 °C/h, average of 5-10 tests, lower = better KHI
[6] = 1000 ppm aqueous solution, SCC 1 °C/h
[7] = 2500 ppm + 1 mL of n-decane each cell + 5000 ppm nBGE, SCC 1 °C/h
[8] = 2500 ppm + 1 mL of n-decane each cell, SCC 1 °C/h
[9] = 2500 ppm + 3 mL of n-decane each cell + 5000 ppm nBGE, SCC 1 °C/h

| SMILES | cloud p.t Tcl [1] | av. Ta (gas hydrate rapid formation temperature) [2, 4] | av. To (gas hydrate onset temperature) [2, 5] | further results |
| --- | --- | --- | --- | --- |
| CC(C)CNC(=O)CC(O)(CC(=O)NCC(C)C)C(=O)NCC(C)C [TiBuCAm, 2-Hydroxy-N^1,N^2,N^3-triisobutylpropane-1,2,3-tricarboxamide] | >95 °C | 13.5 °C | – | – |
| CCCCCNC(=O)CC(O)(CC(=O)NCCCCC)C(=O)NCCCCC [TnPeCAm, 2-Hydroxy-N^1,N^2,N^3-tripentylpropane-1,2,3-tricarboxamide] | – | – | – | solubility in water [3]: not soluble; solubility in water ([3]; listed as Tri-n-pentylcitramide): negligible solubility in water; solubility in water ([3]; listed as tri-n-pentylcitramide): not water soluble |
| CCCNC(=O)CC(O)(CC(=O)NCCC)C(=O)NCCC [TnPrCAm, 2-Hydroxy-N^1,N^2,N^3-tripropylpropane-1,2,3-tricarboxamide] | >95 °C | 12.3 °C | 16.3 °C | – |
| CC(C)CNC(=O)CC(CC(=O)NCC(C)C)(OC(=O)CC(=O)OC(CC(=O)NCC(C)C)(CC(=O)NCC(C)C)C(=O)NCC(C)C)C(=O)NCC(C)C [malonyl-TiBuCAm, 1,3-Malonic acid bis(triisobutylcitric acid) amide] | >95 °C | 12.7 °C | – | – |
| CCCNC(=O)CC(CC(=O)NCCC)(OC(=O)CC(=O)OC(CC(=O)NCCC)(CC(=O)NCCC)C(=O)NCCC)C(=O)NCCC [malonyl-TnPrCAm, 1,3-Malonic acid bis(tripropylcitric acid) amide] | >95 °C | 13.5 °C | 16.3 °C | – |
| CC(C)CNC(=O)CC(CC(=O)NCC(C)C)(OC(=O)COCC(=O)OC(CC(=O)NCC(C)C)(CC(=O)NCC(C)C)C(=O)NCC(C)C)C(=O)NCC(C)C [oxydiacetyl-TiBuCAm, 2,2′-oxydiacetic acid bis(triisobutylcitric acid) amide] | 35 °C | 8.1 °C | 8.4 °C | av. Ta (gas hydrate rapid formation temperature) [2, 6]: 9.2 °C; av. To (gas hydrate onset temperature) [2, 6]: 9.3 °C; av. Ta (gas hydrate rapid formation temperature) [2, 7]: 7.9 °C; av. To (gas hydrate onset temperature) [2, 7]: 8.1 °C; av. Ta (gas hydrate rapid formation temperature) [2, 8]: 7.2 °C; av. To (gas hydrate onset temperature) [2, 8]: 7.4 °C; av. Ta (gas hydrate rapid formation temperature) [2, 9]: 6.0 °C; av. To (gas hydrate onset temperature) [2, 9]: 6.2 °C |
| CCCNC(=O)CC(CC(=O)NCCC)(OC(=O)COCC(=O)OC(CC(=O)NCCC)(CC(=O)NCCC)C(=O)NCCC)C(=O)NCCC [oxydiacetyl-TnPrCAm, 2,2′-Oxydiacetic acid bis(tripropylcitric acid) amide] | >95 °C | 12.3 °C | 12.8 °C | – |
